Each block holds one molecule with its values, some of them ahead of it.
Key:
[1] = Treatment of spinal cord injured rats and cats with alpha-adrenoceptor agonists; format: in vivo
Method: The animals are treated with a guanidino compound, e.g., guanphylline or aminoguanphylline, twice daily (1 mg/kg). Approximately 10, 14 and 20 days after treatment with, e.g., guanphylline or aminoguanphylline is commenced, these animals can also be treated with a serotonergic (“5-HT”) receptor agonist; such as quipazine (1–2 mg/kg). Such serotonergic compounds can accelerate the recovery period, i.e., shorten the period after which time the animals become mobile. The animals should then continue to be treated systemically with the guanidino compound twice daily for six to eight weeks, or until functional recovery has been achieved.
Many rats and cats have been treated with several alpha-adrenoceptor agonists in order to ascertain which drug has the least side effects and reduces the time period for recovery.

[2] = Spinal cord transection in rats: recovery of hind limb function and reflexes under treatment; format: in vivo, rat
Method: The spinal cord of a group of rats was completely transected. After surgery, the rats were treated with guanabenz.
The rats presented with a condition of bloody eyes and nose for a period of 2 to 5 days after the transection. During the first two-weeks, proper plantar placement, weight bearing on the hind limbs and/or coordinated walking was not present.
In a further group of six rats the spinal cord was transected in accordance with the above Comparative Examples. After surgery and cleaning and mechanical treatment of the wounds in the same fashion, an intraperitoneal injection of 7-(guanidino-acetyl-theophylline (“C”) was administered at a dose of 5.0 mg/kg 24 hours post surgery. Within a 7 to 9 day period, the rats engaged in walking movements of the hind limbs coordinated with those of the front limbs and the hind limbs, including proper plantar placement and full weight bearing on the hind limbs.
Within 36 hours after the spinal cord transection, i.e., only 12 hours after initial administration of Compound C, the initial bloody eyes and nose condition had abated. […] Further the animals were alert and continued to eat in substantially normal quantities.
Starting 24 hours post-transection, immediately after each intraperitoneal administration of Compound C, reflexes such as the tail-flick and cross-extension would return, within 12 minutes post injection. […] Within 8 to 11 days the response became sustained, and was accompanied by long-term therapeutic restoration of coordinated movements, plantar placements and weight-bearing by the hind limbs.

[3] = Spinal cord trauma (500 g-cm weight drop at T4) in cats: urinary bladder function, micturition; format: in vivo, cat
Method: A cat was anesthetized using intravenous pentobarbital (30 mg/kg) after which its arterial blood pressure was continuously monitored for at least two hours. After recording stable arterial blood pressure, a dorsal laminectomy was performed in the thoracic region of the cat from T3 to T5; after restoration of blood pressure, the cat was traumatized by means of a twenty gram weight being dropped from a height of twenty-five centimeters (500 g-cm force) on the exposed dura of the spinal cord at the fourth thoracic segment.
Ten cats were spinally traumatized in accordance with the procedure set forth above in Comparative Example A. Five of these spinal cats were treated with Compound C commencing three hours after trauma and five of the cats were treated with guanabenz beginning at the same time.
Spinalized cats required eight weeks of treatment with guanabenz before regaining controlled micturition. Cats treated with Compound C, required only three to five weeks of treatment to achieve the same results.

[4] = Electrical tail stimulation, vocalization threshold (anesthesia) in rats; format: in vivo, rat
Method: A fifth rat was treated with merely an equal amount of the dextrose solution without guanabenz acetate. The rats were subjected to an electrical tail stimulation, by electrodes attached to their tails, to determine the point of positive (threshold) vocalization.
The normal vocalization threshold, and the point at which the control rat vocalized was approximately 7 volts. […] To bring the rats out of anesthesia, the rats were then injected with 40 mgs. of aminophylline, also in 1 ml of a 5% aqueous dextrose solution. […] The normal threshold for vocalization was reestablished, as there was no vocalization at 6 volts following recovery from anesthesia.
The rats were maintained under anaesthesia for a period of 50 minutes before injection of the aminophylline.

[5] = Method: Room temperature was 21.5° C.
The core temperatures of the rats were allowed to fall to approximately 30° C., after about 15 minutes. At that time, the rats were placed in a temperature controlled room maintained at 42° C., together with 2 control rats treated only with the dextrose solution.
The core temperatures of the rats were allowed to fall to approximately 30° C. At that time, the rats were placed in a temperature controlled room maintained at 42° C., together with two control rats treated only with the dextrose solution.

[6] = Core temperature of treated rats in a room at minus 30° C.; format: in vivo, rat; settings: four rats, 4 mg intraperitoneally, placed about 30 minutes after injection
Method: (room temperature). […] (plus or minus 0.5° C.). The core temperatures of the four treated rats, as well as that of two control rats who received only the dextrose solution, were continuously monitored.

[7] = Brain and core temperature of treated rats in a room at 4°–5°; format: in vivo, Sprague-Dawley rats; settings: 12 mg/kg IP
Method: All sixteen rats were placed in a temperature-controlled room maintained at 4°–5° d. immediately after injection.

[8] = Intravenous anesthesia of a 70 kg mammal; format: in vivo
Method: Thereafter, an intravenous injection containing 20 mg of aminophylline is administered over a period of five minutes. The large mammal is fully awakened within about 20 minutes, appearing alert and refreshed.
The period of time required to fully reverse the anesthesia can be increased or decreased by proportionally changing the amount of the antagonist. After metabolism of guanabenz, the mammal will spontaneously awaken, within about three to six hours after the I.V. drip is discontinued.

[9] = Formation of scar tissue at the trauma site; format: in vivo
Excerpt: It is believed that these mixed agonists interfere with triple helix formation in the synthesis of collagen protein, thus preventing or reducing the formation of hard scar tissue at the trauma site.
The purpose of liquid nitrogen is to reduce the structural integrity of the collagen laden, glial scar tissue, by freezing and defrosting. Collagenase then initiates a debridgement of the scar without attacking the nervous and osseous tissue. If required, streptokinase, or alteplase, both plasminogen activators can also be used to bring about a complete debridgement. In addition to 3-amino-propionitrile (a latherogen), 5-fluorodeoxyuridine and dehydroproline can be used to arrest further glial and fibroblastic invasion of the scar region, respectively.

[10] = Anesthesia in rats judged by reflexes and wakefulness
[11] = Sprague-Dawley rats, 4 mg, tolazoline 4 mg intravenously about twenty minutes before
[12] = 4 mg I.P., room temperature 21.5° C.

SMILES: Cn1c(=O)c2c(ncn2C(=O)CNC(=N)N)n(C)c1=O [7-(guanidinoacetyl)-theophylline]
efficacy in treated rats and cats [1]: found efficacious

behavior after the experiment [7]: resume normal behavior
SMILES: N=C(N)N/N=C/c1c(Cl)cccc1Cl [guanabenz]
muscle mass of hind limbs ([2]; spinal transected rats under I.P. treatment): some, but not significant loss of muscle mass | duration of sedation following each administration ([2]; spinal transected rats, 0.65 mg/kg I.P. twice per day from 72 hours after the lesion): 2 to 4 h | time of treatment until proper plantar placement, weight bearing on the hind limbs and coordinated walking movements ([2]; spinal transected rats, 0.65 mg/kg I.P. twice per day, majority of the rats): third week | urinary bladder function at urodynamic examination ([3]; spinal cats, 0.65 mg/kg bid from three hours after trauma, guanabenz four to five weeks after treatment began, Compound C after seven to twenty-one days): tight urinary sphincter and dyssinergia | treatment required before regaining controlled micturition ([3]; spinalized cats): eight | duration of anesthesia without further administration [4, 11]: four | time until anesthetized [4, 11]: five | vocalization threshold on electrical tail stimulation (failed to vocalize) ([4]; rats 310–350 g, 4 mg intraperitoneally, beginning seven minutes after injection, normal threshold 7 volts): > 10 volts | vocalization threshold on electrical tail stimulation (no vocalization response) ([4]; rats, 4 mg intraperitoneally, thereafter (profoundly anesthetized)): > 40 Volts | mean intraperitoneal temperature [5, 12]: 31.5 °C | temperatures of the liver and the kidneys [5, 12]: about 33.5 °C | core temperature (colonic measurement) after drop ([5]; eight rats each, 4 mg I.P. in 5% dextrose, room temperature 21.5° C., normal value 36.5° C.): 22.5 °C | core temperature after drop ([5]; four rats, 4 mg intraperitoneally, room temperature 21° C., before cold room): 21 °C | core temperature approximately 15 minutes after placement in the cold room [6]: ~16 °C | core temperature lower than the brain temperature by ([7]; ultimately): 10 °C | mean brain temperature after 45 minutes ([7]; 8 rats, original mean 37° C.): 27 °C | total amount in the initial single dose for anesthetic and hypothermic effect ([8]; 60 to 75 kg mammal, intravenous injection): ≤ 0.5 mg/kg | reaction to noxious stimulation and corneal reflex ([8]; 70 kg mammal, 6 mg intravenous): does not overtly react to the noxious stimulation of pin-pricks | time after injection until profound anesthesia ([8]; 70 kg mammal, 6 mg intravenous over three minutes): five | additional duration of profound anesthesia after the drip ([8]; 70 kg mammal, drip 0.1 mg/ml at 1 ml/min for 30 minutes from about 120 minutes after the initial injection): about two | time to spontaneous awakening after the I.V. drip is discontinued ([8]; large mammal, after metabolism of guanabenz): three to six | effect on formation of the scar [9]: interfere with formation of the scar | anesthetic state of the treated rats [10, 12]: anesthetized | I.P. amount sufficient to initially place the rats in an anesthetized condition ([10]; laboratory rats, I.P.): 12 mg per kilogram of body weight
